Experimental data published in BigSolDB 2.1.

O=C(NC[C@H]1CN(c2ccc(N3CCOCC3=O)cc2)C(=O)O1)c1ccc(Cl)s1
solubility (mole fraction)
Settings | 278.15 K | 283.15 K | 288.15 K | 293.15 K | 298.15 K | 303.15 K | 308.15 K | 313.15 K | 318.15 K
in DMAc | 0.00978 | 0.0108 | 0.0119 | 0.0131 | 0.0144 | 0.0158 | 0.0173 | 0.0189 | 0.0206
in DMF | 0.00586 | 0.00662 | 0.00747 | 0.0084 | 0.00943 | 0.0106 | 0.0118 | 0.0132 | 0.0147
in THF | 0.000205 | 0.00023 | 0.000263 | 0.00029 | 0.000328 | 0.000359 | 0.000401 | 0.00045 | 0.000511
in ethyl acetate | 5.17e-05 | 5.93e-05 | 6.79e-05 | 7.74e-05 | 8.81e-05 | 0.0001 | 0.000113 | 0.000128 | 0.000144
